Bridge positions count the residues as written; N and C are the ends. Peptide text beside a SMILES is read from it. * marks the point of attachment. Cypate = CC1(C)C(/C=C/C=C/C=C/C=C2/N(CCC(=O)*)c3ccc4ccccc4c3C2(C)C)=[N+](CCC(=O)O)c2ccc3ccccc3c21
Legend:
Integrin alpha-V/beta-3 = Integrin alpha-V/beta-3 (Homo sapiens, UniProt P05106+P06756); assay: Displacement of [125I]echistatin from human integrin […] expressed in human A549 cells by binding assay; assay type: cell-based
A549 = assay: Drug uptake in human A549 cells overexpressing […] integrin at 1 uM after 4 to 24 hrs by fluorescence microscopy; assay type: ADME, cell-based; conditions: a549, 1 µM

Chain of Integrin alpha-V/beta-3 (P05106 27-788 limits assumed): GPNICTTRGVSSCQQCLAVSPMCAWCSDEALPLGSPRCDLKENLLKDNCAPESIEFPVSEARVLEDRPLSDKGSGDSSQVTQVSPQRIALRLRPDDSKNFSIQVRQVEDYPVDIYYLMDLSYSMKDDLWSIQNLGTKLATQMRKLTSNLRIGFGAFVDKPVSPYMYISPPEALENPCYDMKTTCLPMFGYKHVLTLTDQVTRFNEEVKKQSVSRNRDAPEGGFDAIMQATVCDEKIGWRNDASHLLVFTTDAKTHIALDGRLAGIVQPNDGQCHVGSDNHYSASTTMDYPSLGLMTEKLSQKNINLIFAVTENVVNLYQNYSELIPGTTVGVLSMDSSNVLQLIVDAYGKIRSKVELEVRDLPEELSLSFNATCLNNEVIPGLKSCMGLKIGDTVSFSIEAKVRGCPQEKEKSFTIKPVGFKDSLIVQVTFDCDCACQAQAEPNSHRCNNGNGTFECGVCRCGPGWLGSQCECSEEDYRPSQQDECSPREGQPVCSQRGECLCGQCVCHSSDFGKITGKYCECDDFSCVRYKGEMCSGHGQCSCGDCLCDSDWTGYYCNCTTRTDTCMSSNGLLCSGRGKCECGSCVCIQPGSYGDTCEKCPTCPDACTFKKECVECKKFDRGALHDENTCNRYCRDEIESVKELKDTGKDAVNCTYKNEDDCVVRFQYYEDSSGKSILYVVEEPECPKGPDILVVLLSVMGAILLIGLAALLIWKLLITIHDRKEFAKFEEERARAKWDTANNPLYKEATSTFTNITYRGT
Chain of Integrin alpha-V/beta-3 (P06756 31-889 limits assumed): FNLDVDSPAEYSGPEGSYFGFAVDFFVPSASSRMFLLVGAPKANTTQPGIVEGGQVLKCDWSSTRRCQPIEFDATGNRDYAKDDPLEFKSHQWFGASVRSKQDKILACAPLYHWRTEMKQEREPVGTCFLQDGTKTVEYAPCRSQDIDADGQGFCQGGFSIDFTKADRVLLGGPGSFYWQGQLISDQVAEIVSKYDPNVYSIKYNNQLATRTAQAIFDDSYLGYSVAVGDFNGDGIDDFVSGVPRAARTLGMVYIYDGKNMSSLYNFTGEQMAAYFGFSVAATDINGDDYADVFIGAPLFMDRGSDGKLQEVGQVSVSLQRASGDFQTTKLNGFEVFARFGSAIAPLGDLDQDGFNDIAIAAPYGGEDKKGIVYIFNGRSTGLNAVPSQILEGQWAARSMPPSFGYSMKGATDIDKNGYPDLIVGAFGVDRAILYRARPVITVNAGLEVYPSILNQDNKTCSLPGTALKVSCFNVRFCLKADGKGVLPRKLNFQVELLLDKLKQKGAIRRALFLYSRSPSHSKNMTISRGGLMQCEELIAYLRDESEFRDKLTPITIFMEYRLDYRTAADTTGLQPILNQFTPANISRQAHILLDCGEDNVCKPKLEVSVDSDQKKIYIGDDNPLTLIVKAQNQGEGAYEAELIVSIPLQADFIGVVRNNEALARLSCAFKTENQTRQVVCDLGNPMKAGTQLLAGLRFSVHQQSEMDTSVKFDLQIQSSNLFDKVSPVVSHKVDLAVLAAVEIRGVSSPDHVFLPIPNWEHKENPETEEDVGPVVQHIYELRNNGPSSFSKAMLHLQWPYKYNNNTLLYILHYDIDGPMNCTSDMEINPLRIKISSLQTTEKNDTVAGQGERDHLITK
Chain of Integrin alpha-V/beta-3 (P06756 891-1048 limits assumed): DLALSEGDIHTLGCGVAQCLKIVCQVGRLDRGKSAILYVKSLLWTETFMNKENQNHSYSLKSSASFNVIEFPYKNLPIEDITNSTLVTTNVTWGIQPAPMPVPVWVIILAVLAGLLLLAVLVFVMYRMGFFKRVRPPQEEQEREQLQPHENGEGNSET

CC1(C)C(/C=C/C=C/C=C/C=C2/N(CCC(=O)N[C@H]3CSSC[C@@H](C(N)=O)NC(=O)[C@H](CC(=O)O)NC(=O)[C@H](Cc4ccc(O)cc4)NC(=O)[C@H](CCCNC(=N)N)NC3=O)c3ccc4ccccc4c3C2(C)C)=[N+](CCC(=O)O)c2ccc3ccccc3c21 (Cypate-CRYDC-NH2; disulfide 1-5)
IC50 (Integrin alpha-V/beta-3): > 10 µM

CC1(C)C(/C=C/C=C/C=C/C=C2/N(CCC(=O)N[C@H]3CSSC[C@@H](C(N)=O)NC(=O)[C@H](CC(=O)O)NC(=O)CNC(=O)[C@H](CCCNC(=N)N)NC3=O)c3ccc4ccccc4c3C2(C)C)=[N+](CCC(=O)O)c2ccc3ccccc3c21
Drug uptake (A549): Active

CC1(C)C(/C=C/C=C/C=C/C=C2/N(CCC(=O)NCCCC[C@@H]3NC(=O)[C@@H](Cc4ccccc4)NC(=O)[C@H](CC(=O)O)NC(=O)CNC(=O)[C@H](CCCNC(=N)N)NC3=O)c3ccc4ccccc4c3C2(C)C)=[N+](CCC(=O)O)c2ccc3ccccc3c21
Drug uptake (A549): Active
IC50 (Integrin alpha-V/beta-3): 0.72 µM

CC(C)[C@@H]1NC(=O)[C@H](CCCNC(=N)N)NC(=O)[C@@H](NC(=O)CCN2/C(=C/C=C/C=C/C=C/C3=[N+](CCC(=O)O)c4ccc5ccccc5c4C3(C)C)C(C)(C)c3c2ccc2ccccc32)CSSC[C@@H](C(N)=O)NC(=O)[C@H](CC(=O)O)NC1=O (Cypate-CRVDC-NH2; disulfide 1-5)
IC50 (Integrin alpha-V/beta-3): > 10 µM

CC1(C)C(/C=C/C=C/C=C/C=C2/N(CCC(=O)N[C@H]3CSSC[C@@H](C(N)=O)NC(=O)[C@H](CC(=O)O)NC(=O)[C@@H]4CCCN4C(=O)[C@H](CCCNC(=N)N)NC3=O)c3ccc4ccccc4c3C2(C)C)=[N+](CCC(=O)O)c2ccc3ccccc3c21 (Cypate-CRPDC-NH2; disulfide 1-5)
IC50 (Integrin alpha-V/beta-3): > 10 µM
